Patent US20210145830A1, “MATERIALS AND METHODS FOR TREATING CANCER” (Mayo Foundation for Medical Education and Research, priority 2018, published 2021)

Key:
[1] = system: Naïve T cells; assay: Naïve T cell degranulation assay and cytokine production; format: cell-based; conditions: PMA/Ionomycin
Experimental: FIG. 21A-E. TP0903 modulates naïve T cells function upon stimulation of PMA/Ionomycin in vitro. A. Naïve T cell proliferation assay in the presence of TP0903. Naïve T cells were stimulated with 5 ng/ml of PMA and 0.1 μg/ml of Ionomycin in the absence or in the increasing dose of TP0903 (10-65 nM) for 3 days. […] B. At the end of the expansion on day 3, T cells were stained with inhibitory receptors. […] C. Naïve T cell degranulation assay and cytokine production in the presence of TP0903. Naïve T cells were stimulated with 50 ng/ml of PMA and 1 μg/ml of Ionomycin for 4 hours in the presence of increasing doses of TP0903 (10-65 nM). […] D. Western blot analysis of p-LCK and GATA-3 inhibition by TP0903 in naïve T cells. Naïve T cells were stimulated with 5 ng/ml of PMA and 0.1 ug/ml of Ionomycin in the absence (DMSO) or in the increasing dose of TP0903 (10-65 nM) for 24 hours. […] was used as loading control. E. TP0903 specifically reduces regulatory T cells (Treg). Effector T cells (Teff) were isolated by negative selection using RoboSep™ Human T Cell Isolation Kit (Stemcell Technologies). Tregs were isolated by negative selection using the human CD4^+CD127^lowCD25^+ Treg isolation kit (Stemcell Technologies). Teff and Treg were stimulated with anti-CD3/CD28 beads and 400 U/ml of IL-2. At day 5, total T cells were evaluated via CountBright quantification.

[2] = system: Effector T cells (Teff); assay: Effector T cell expansion (anti-CD3/CD28 beads, IL-2); format: cell-based, human; conditions: anti-CD3/CD28 beads + 400 U/ml IL-2; day 5
Experimental: (§1) FIGS. 19A-F. A. Inhibitory receptors expression in naïve T cells after TCR activation with CD3 stimulation in the increasing dose of TP0903. Naïve T cells were incubated with anti CD3/CD28 beads at a 1 to 3 ratio in the presence of TP0903. At day 3, T cells were stained with PD-1, TIM-3, LAG-3, and ICOS. […] Teff cells were isolated by negative selection using Human T Cell Isolation Kit. Tregs were isolated by negative selection using the human CD4^+CD127^lowCD25^+ Treg isolation kit. Teff and Treg were stimulated with anti CD3/CD28 beads and 400 U/ml of IL-2. At day 5, total T cells were evaluated via CountBright quantification. C. CART19 cytokine assay in the presence TP0903. UTDs or CART19 were incubated with Jeko in the presence of TP-0903 at a 1 to 1 ratio. Supernatant was harvested and analyzed by 32-plex Luminex array after 3 days. D. Inhibitory receptors expression in CART19 cells in the presence TP0903. UTDs or CART19 were incubated with Jeko at a 1 to 1 E/T ratio in the presence of TP0903. At day 5, T cells were stained with PD-1 (left), LAG-3 (right), and TIM-3. […] Cell killing was assessed by luminescence at 24 hours. […]
(§2) FIG. 21A-E. TP0903 modulates naïve T cells function upon stimulation of PMA/Ionomycin in vitro. […] At day 5, total T cells were evaluated via CountBright quantification.

[3] = system: Blood T cells; assay: Correlative analysis of blood T cells in Phase I trial of TP0903 (NCT02729298); format: in vivo, patients with solid tumors
From the text: FIG. 20. Multiparametric flow cytometric analysis of peripheral blood samples obtained before and after TP0903 treatment in patients with advanced solid tumors. A. Representative CD4^+CD25^+Foxp3^+ regulatory T cells (Treg) (upper right quadrants) at baseline (left) and after treatment (right). Data were pooled from three independent experiments with peripheral blood mononuclear cells from three donors. B. Representative flow plot of CD4^+ and CCR6^− negative cells.
The preclinical findings were validated in a correlative analyses of Phase I clinical trial of TP0903 for patients with solid tumors (NCT02729298). Blood T cells from 3 patients were isolated and analyzed before and a week after treatment with TP0903. […] These findings are further investigated in a Phase I clinical trial of TP0903 in relapsed/refractory CLL (NCT03572634).

[4] = system: CART19 cells; assay: RNA-seq of TP0903 treated vs non-treated CART19 cells; format: cell-based
Experimental: FIG. 24A-B. A. Western blot analysis of p-LCK inhibition by TP0903 in CART19 cells. CART19 cells were incubated with lethally irradiated JeKo-1 in the presence of TP0903 at a 1 to 3 ratio for 24 hours. After the incubation, CART19 cells were purified with anti-CD19 micro beads. […] B. Comparison of gene expression between TP0903 treated CART19 cells and non-treated CART19 cells subpopulations using RNA-seq. CART19 cells from three biological replicates were thawed and stimulated with irradiated JeKo-1 (120 Gy) for 5 days. Each sample was treated with either 30 nM TP0903 (treated condition) or DMSO (untreated condition). Representative flow cytometric analysis of CART19 cells before RNA isolation (right). RNA-seq was performed on an Illumina […] by the Genomic Sequencing Core at Mayo Clinic.
FIG. 28A-E. A, Western blot analysis of p-LCK inhibition by TP-0903 in CART19 cells. CART19 cells were incubated with lethally irradiated JeKo-1 in the presence of TP0903 at a 1 to 3 ratio for 24 hours. After the incubation, CART19 cells were purified with anti-CD19 micro beads. B, Representative flow cytometric analysis of CART19 cells before RNA isolation. Principal component analysis (PCA) from RNA-seq analysis of untreated cells and cells treated with 30 nM of TP-0903. […]

[5] = system: regulatory T cells (Treg); assay: Regulatory T cell expansion (anti-CD3/CD28 beads, IL-2); format: cell-based, human
Experimental: as §1, §2

[6] = 3 patients, before vs a week after treatment
[7] = CD4+ CCR6− cells, after TP0903 treatment

With `CN1CCN(Cc2ccc(Nc3ncc(Cl)c(Nc4ccccc4S(=O)(=O)N(C)C)n3)cc2)CC1` [TP0903] the IL-4 ([1]; 4 hours, increasing dose of TP0903 (10-65 nM)) was “significant inhibition”, the “cytokine production (Th1 / Th2 cytokines)” value ([1]; low dose TP0903) was “favorably altered through the promotion of Th1 and reduction of Th2 cytokines” and the Teff expansion [2] was “not interfered”. For the same compound, the Th phenotype [3, 6] was “polarization to a Th1 phenotype”, the Tregs [3, 6] was “significant reduction” and the inhibitory receptors [3, 6] was “reduction”. The “CXCR3+CCR4+ (double positive) fraction” value [3, 7] was “increase”, the “CXCR3−CCR4+ fraction (Th2)” value [3, 7] was “Remarked reduction” and the “immune synapse related genes (cell junction, cell migration)” value ([4]; activated CART cells treated with TP0903) was “significantly increased”. The “differentially expressed genes in transcriptome vs non-treated cells” value ([4]; activated CART cells treated with TP0903 (30 nM)) was “More than 100 genes”, the Treg expansion ([5]; anti-CD3/CD28 beads + 400 U/ml IL-2, day 5) was “specifically reduced” and the “Treg versus effector T cells” value ([5]; treated with TP0903 for 3 days) was “preferential reduction”.
